Values quoted from earlier work, collected in patent publication US20040259834A1, “Therapeutic composition containing at least diflomotecan and capecitabine” (priority 2003, published 2004).

Assays:
[1] = 7-membered β-hydroxylactone ring, more stable lactone form
various xenografts = various xenografts growing in nude mice

## CC[C@@]1(O)CC(=O)OCc2c1cc1n(c2=O)Cc2cc3cc(F)c(F)cc3nc2-1 [Diflomotecan]
[1]
  plasma stability: greater plasma stability
Various xenografts
  activity against xenografts: excellent activity
